{
  "source": "paper PMC7044277",
  "about": "(Nature Communications, 2020)",
  "type_in_all_cases": "cell-based",
  "key": {"320 non-olfactory GPCRs [1]": {"target": "T1, 320 non-olfactory GPCRs (Homo sapiens, UniProt O00574)", "T1 construct": "expressed in transfected cells; host or cells: HTLA cells", "T1 sequence (O00574 whole entry)": "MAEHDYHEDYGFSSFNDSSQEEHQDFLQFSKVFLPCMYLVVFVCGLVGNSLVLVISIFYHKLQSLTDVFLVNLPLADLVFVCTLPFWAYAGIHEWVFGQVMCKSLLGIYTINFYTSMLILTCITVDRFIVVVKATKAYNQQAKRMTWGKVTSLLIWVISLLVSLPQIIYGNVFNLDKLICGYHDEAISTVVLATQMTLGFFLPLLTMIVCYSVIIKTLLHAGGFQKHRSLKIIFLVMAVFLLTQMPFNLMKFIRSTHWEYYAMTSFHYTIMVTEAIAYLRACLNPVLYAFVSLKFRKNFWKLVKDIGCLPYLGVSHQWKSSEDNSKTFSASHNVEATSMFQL"}, "320 non-olfactory GPCRs [2]": {"target": "T2, 320 non-olfactory GPCRs (Homo sapiens, UniProt P35408)", "T2 construct": "expressed in transfected cells; host or cells: HTLA cells", "T2 sequence (P35408 whole entry)": "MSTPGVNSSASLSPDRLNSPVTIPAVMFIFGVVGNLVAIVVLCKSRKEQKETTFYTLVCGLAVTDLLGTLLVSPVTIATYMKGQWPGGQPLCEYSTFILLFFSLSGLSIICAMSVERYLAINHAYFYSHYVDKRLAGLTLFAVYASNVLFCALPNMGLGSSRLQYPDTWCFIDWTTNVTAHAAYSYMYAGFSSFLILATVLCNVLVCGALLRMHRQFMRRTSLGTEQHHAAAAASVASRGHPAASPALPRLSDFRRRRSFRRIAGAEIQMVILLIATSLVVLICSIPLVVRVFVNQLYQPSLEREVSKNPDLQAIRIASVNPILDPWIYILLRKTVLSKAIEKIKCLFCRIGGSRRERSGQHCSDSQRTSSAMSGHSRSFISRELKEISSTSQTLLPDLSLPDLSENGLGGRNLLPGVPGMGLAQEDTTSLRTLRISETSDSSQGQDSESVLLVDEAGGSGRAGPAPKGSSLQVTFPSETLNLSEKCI", "details": "receptor PTGER4; replicate values, Fig_4g"}, "320 non-olfactory GPCRs [3]": {"target": "320 non-olfactory GPCRs (Homo sapiens, UniProt P32238)", "sequence (P32238 whole entry)": "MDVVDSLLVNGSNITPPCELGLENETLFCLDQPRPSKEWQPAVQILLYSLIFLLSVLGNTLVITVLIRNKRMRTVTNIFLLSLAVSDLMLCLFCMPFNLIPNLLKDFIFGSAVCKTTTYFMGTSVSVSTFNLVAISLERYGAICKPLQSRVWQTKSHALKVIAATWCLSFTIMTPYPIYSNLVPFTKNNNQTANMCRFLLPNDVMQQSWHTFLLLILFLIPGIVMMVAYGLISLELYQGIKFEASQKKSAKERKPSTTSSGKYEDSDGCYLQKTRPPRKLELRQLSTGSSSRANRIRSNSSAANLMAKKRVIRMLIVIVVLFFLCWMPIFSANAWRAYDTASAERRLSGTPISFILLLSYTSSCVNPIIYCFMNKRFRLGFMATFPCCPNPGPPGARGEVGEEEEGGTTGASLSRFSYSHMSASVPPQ"}, "320 non-olfactory GPCRs [4]": {"target": "T3, 320 non-olfactory GPCRs (Homo sapiens, UniProt Q9HBW9)", "T3 construct": "expressed in transfected cells; host or cells: HTLA cells", "T3 sequence (Q9HBW9 20-690)": "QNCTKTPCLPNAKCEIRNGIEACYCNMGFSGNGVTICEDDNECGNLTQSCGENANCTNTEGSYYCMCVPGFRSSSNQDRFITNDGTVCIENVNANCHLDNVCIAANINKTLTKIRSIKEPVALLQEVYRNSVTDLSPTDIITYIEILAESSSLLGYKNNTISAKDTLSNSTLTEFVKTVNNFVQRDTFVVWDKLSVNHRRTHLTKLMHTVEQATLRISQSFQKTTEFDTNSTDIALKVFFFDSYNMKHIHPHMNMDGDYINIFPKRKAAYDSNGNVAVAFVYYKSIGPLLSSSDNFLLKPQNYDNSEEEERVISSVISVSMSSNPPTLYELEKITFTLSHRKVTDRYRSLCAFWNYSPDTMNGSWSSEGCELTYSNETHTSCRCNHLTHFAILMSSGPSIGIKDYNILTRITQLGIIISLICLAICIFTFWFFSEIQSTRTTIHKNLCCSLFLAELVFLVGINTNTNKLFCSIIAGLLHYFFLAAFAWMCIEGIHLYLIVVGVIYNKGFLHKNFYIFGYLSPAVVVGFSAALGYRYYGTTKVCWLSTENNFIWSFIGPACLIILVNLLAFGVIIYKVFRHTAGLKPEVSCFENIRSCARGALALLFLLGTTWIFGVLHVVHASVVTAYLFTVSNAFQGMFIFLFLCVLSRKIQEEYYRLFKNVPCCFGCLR"}},
  "note": "Values joined by “and” are separate entries in the source; they are usually repeats but may differ in a detail not shown here. Equal entries are not always repeated.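 Throughout, for Fold of Basal: compound tested at 1 µM final concentration.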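 Throughout, for GPCRome agonism screen response: fold over basal response of each receptor without drug.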",
  "data": [
    {"smiles": "CCOc1cccc2cc(C(C)NCC3(O)CCCCC3)oc12", "note": "(stereo not shown) [O4LE6]", "values": [
      {"measurement": "Fold of Basal", "setting": "320 non-olfactory GPCRs [1]", "value": "0.9849 and 0.6404 and 1.204 and 0.796"},
      {"measurement": "GPCRome agonism screen response", "setting": "320 non-olfactory GPCRs [2]", "value": "2.508 and 1.456 and 1.732 and 0.428"},
      {"measurement": "Fold of Basal", "setting": "320 non-olfactory GPCRs [3]", "value": "0.8879 and 0.8535 and 0.8133 and 1.029"},
      {"measurement": "Fold of Basal", "setting": "320 non-olfactory GPCRs [4]", "value": "1.158 and 1.093 and 1.161 and 0.9931"}
    ]}
  ]
}
